The text below walks through data of patent EP3294317B1, “ENHANCED ANTIBIOTIC COMPOSITION” (Universitat Autònoma de Barcelona, priority 2015, dated 2016).

One test relates to P. aeruginosa ATCC 27853. In words: Broth microdilution MIC of other antibiotics with potentiator compounds (Example 2). It counts as cell-based, Pseudomonas aeruginosa. The settings on record: any of ciprofloxacin, amikacin, levofloxacin, tigecycline, imipenem, TMP/SMX (1:19), 0.1 mM potentiator, 1.0% DMSO, 'none' = no antibiotic potentiated. As to the method: Following the procedure of Example 1, ciprofloxacin, amikacin, levofloxacin, tigecycline, imipenem and the combination trimethoprim/sulfamethoxasole (1:19) were tested. All were purchased from Sigma-Aldrich Co.
Minimal inhibitory concentration (MIC) of the antibiotic or the test combinations were determined by the broth microdilution method.
Antibiotic stock solutions were prepared according to CLSI recommendations and sterilizing by passage through 0.20 µm filters.
Antimicrobial susceptibility testing of these isolates was performed using the broth microdilution (BMD) method, according to CLSI guidelines.
The fold increase in bacterial susceptibility to antibiotics when combined with the potentiator compound (expressed as MIC in the presence of 1.0% DMSO / MIC in the presence of 0.1 mM of each potentiator compound and 1.0% DMSO) are shown in Table 4: […]
On the technique in general: Dilution methods test growth across graded concentrations, often in twofold steps.

In test [1] the test system is Stenotrophomonas maltophilia ATCC 13637. In words: Colistin broth microdilution MIC with potentiator compounds (Example 1). It counts as cell-based. The settings on record: S. maltophilia ATCC 13637; MIC in the presence of 1.0% DMSO / MIC in the presence of 0.1 mM potentiator compound and 1.0% DMSO; positive = increased, negative = decreased susceptibility, 1 = no effect.

Turning to `CN(C)CCNC(=O)c1cccc(CNC(=O)Nc2ccc3c(c2)Cc2ccccc2-3)c1` [I, N-[2-(dimethylamino)ethyl]-3-[(9H-fluoren-2-ylcarbamoylamino)methyl]benzamide], the “Fold increase in bacterial susceptibility to antibiotic indicated” value in the test with P. aeruginosa ATCC 27853 is given as “none”. Besides, the “Fold increase in bacterial susceptibility to colistin” value in test [1] is reported as “+64 fold”.
